Reference: ChEMBL document CHEMBL1201862, “PubChem BioAssay data set” (2004)
Calls of active or inactive are those of the source.

Key:
[1] = target: T1, Voltage-gated N-type calcium channel alpha-1B subunit/Amyloid beta A4 precursor protein-binding family A member 1 (Homo sapiens, UniProt Q00975+Q02410); type: protein assay
[2] = target: T1, Voltage-gated N-type calcium channel alpha-1B subunit/Amyloid beta A4 precursor protein-binding family A member 1; type: protein assay; remark: listed apart in the source
[3] = target: G-protein coupled receptor 55 (Homo sapiens, UniProt Q9Y2T6); experiment: inhibition of LPI-stimulated GPR55 beta-arrestin translocation – imaging, U2OS, beta-arrestin-GFP, LPI agonist, primary screen (AID 2013); type: functional;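 note: antagonist potency measured as reduced agonist-driven arrestin aggregation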
[4] = target: T2, E3 ubiquitin-protein ligase XIAP (Homo sapiens, UniProt P98170); experiment: Counter Screen using XIAP-Bir3 for Chemical Antagonists of Bir1/2 domains of IAP-family anti-apoptotic proteins. [Related pubchem assays (depositor defined):AID1018, AID1449, AID1514, AID1638, AID1749, AID1750, AID488957, AID488963]
[5] = target: T2, E3 ubiquitin-protein ligase XIAP; experiment: small molecules displacing peptide from XIAP – biochemical, IAP family, fluorescence polarization (AID 1018); type: functional
[6] = Luminescence Cell-Based Dose HTS Response to Identify Inhibitors of 5'UTR Stem-Loop Driven Prion Protein mRNA Translation in H4-C Neuroglioblastoma Cells. [Related pubchem assays (depositor defined):AID1814, AID1827]; type: functional
[7] = Luminescence Cell-Based Dose Response HTS to Identify Activators of Luciferase Translation or Activity in H4-C Neuroglioblastoma Cells. [Related pubchem assays: 1829 (Project Summary), 1814 (Primary HTS)]; type: functional
[8] = Luminescence Cell-Based Dose Response HTS to Identify Inhibitors of Luciferase Translation or Activity in H4-C Neuroglioblastoma Cells. [Related pubchem assays: 1813 (Primary HTS), 1827 (Project Summary)]; type: functional
[9] = Luminescence Cell-Based Dose Confirmation HTS to Identify Inhibitors of 5'UTR Stem-Loop Driven Alpha-Synuclein mRNA Translation in H4 Neuroglioblastoma Cells. [Related pubchem assays: 1827 (Project Summary), 1813 (Primary HTS)]; type: functional
[10] = Luminescence Cell-Based Dose Response HTS to Identify Activators of 5'UTR Stem-Loop Driven Prion Protein mRNA Translation in H4-C Neuroglioblastoma Cells. [Related pubchem assays: 1829 (Project Summary), 1814 (Primary HTS)]; type: functional
[11] = NIH3T3 cell viability loss – ATP luminescence, mouse fibroblasts, counter-screen, dose response (AID 2010); type: functional, cell-based;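 note: cells exposed to compound for about 90 hours before reading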
Trypsin = Trypsin (Sus scrofa, UniProt P00761); experiment: trypsin protease activity blockade – biochemical, quenched peptide fluorescence, cherry-pick, selectivity assay for Rce1 protease inhibitor project, dose response (AID 488789)
CAAX prenyl protease 2 = CAAX prenyl protease 2 (Saccharomyces cerevisiae S288c, UniProt Q03530); type: biochemical
[12] = target: T3, Alkaline phosphatase, tissue-nonspecific isozyme (Homo sapiens, UniProt P05186); experiment: potency against alkaline phosphatase TNAP – biochemical, luminescent, dose response, SAR follow-up (AID 1056)
T3 sequence (P05186 whole entry): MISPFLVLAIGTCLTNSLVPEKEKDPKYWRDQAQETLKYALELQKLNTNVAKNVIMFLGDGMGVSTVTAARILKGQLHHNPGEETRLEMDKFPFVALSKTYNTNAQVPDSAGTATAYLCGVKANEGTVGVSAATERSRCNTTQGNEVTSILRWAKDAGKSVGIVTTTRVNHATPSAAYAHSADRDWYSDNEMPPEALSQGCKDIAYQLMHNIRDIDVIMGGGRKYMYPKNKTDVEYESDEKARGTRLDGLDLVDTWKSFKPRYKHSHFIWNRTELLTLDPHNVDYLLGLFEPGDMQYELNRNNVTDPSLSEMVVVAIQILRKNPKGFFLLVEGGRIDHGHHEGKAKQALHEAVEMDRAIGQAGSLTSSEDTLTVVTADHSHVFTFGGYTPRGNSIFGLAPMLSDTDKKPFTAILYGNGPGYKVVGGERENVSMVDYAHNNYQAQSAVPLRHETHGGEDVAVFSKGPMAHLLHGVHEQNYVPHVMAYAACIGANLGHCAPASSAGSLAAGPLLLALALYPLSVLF

[13] = target: Alkaline phosphatase, placental type (Homo sapiens, UniProt P05187); experiment: human placental alkaline phosphatase inhibition – biochemical, luminescence, confirmation (AID 1512); type: functional
Beta-galactosidase = Beta-galactosidase (Escherichia coli, UniProt Q8VNN2); experiment: detection-enzyme interference by beta-gal modulators – biochemical, E. coli enzyme, set 3, artefact control for CCR6 antagonist project, dose response (AID 504712); type: functional
Streptococcus = experiment: GAS UMAA2166 growth inhibition – luminescence, BacTiterGlo, counter-screen for streptokinase expression inhibitor project, dose response (AID 1915); type: functional, organism-based;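 note: potency for reduction of bacterial viability or growth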
[14] = Trypanosoma cruzi growth suppression in host cells – NIH3T3 host cells, beta-gal luminescence, confirmation (AID 2044); type: functional, cell-based;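 note: intracellular parasites grown in NIH/3T3 mouse fibroblasts as host cells; luminescent beta-galactosidase reporter signal from transgenic T. cruzi replicating inside host cells; inhibitors lower the luminescence signal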
H9c2 = experiment: cells; type: functional, cell-based; conditions: Rattus norvegicus, H9c2, Myocardium;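 note: confirmatory concentration-response retest of ultra-high-throughput screening hits for modulation of myocardial damage; cell death induced by hydrogen peroxide oxidative stress; compound pretreatment for 60 min then peroxide exposure for 2 h; potency is for protecting the cells against peroxide damage rather than for killing them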
[15] = test system: Streptococcus sp. 'group A'; experiment: Streptococcus pyogenes SK(-)GAS viability under kanamycin – luminescence, BacTiterGlo, confirmation, counter-screen for streptokinase expression inhibitor project, dose response (AID 1900); type: functional, organism-based
Saccharomyces cerevisiae = experiment: S. cerevisiae Caspase-1/ASC signal blockers IC50, NALP1 inhibitor project selectivity test (AID 488863); type: functional, organism-based
[16] = target: NACHT, LRR and PYD domains-containing protein 1 (Homo sapiens, UniProt Q9C000); experiment: NALP1 inhibitors in yeast, dose response, luminescent (AID 488860); type: functional
[17] = viability of PTEN-deleted HCT116 cells – cell-based, HCT116 PTEN knockout, dose response (AID 1047); type: functional;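 note: HCT116 colon tumor cells with PTEN knocked out; cells exposed to compound for 60 hours before readout; potency for loss of cell viability measured by luminescence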
[18] = target: T4, Microphthalmia-associated transcription factor (Homo sapiens, UniProt O75030); experiment: reducers of TRPM1 reporter luminescence, concentration series – cell-based, SK-MEL-5, cherry-picked, set 3, MITF inhibitor project, dose response (AID 493073); type: functional;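 note: SK-MEL-5 melanoma cells with luciferase driven by the MITF target TRPM1 promoter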
T4 sequence (O75030 whole entry): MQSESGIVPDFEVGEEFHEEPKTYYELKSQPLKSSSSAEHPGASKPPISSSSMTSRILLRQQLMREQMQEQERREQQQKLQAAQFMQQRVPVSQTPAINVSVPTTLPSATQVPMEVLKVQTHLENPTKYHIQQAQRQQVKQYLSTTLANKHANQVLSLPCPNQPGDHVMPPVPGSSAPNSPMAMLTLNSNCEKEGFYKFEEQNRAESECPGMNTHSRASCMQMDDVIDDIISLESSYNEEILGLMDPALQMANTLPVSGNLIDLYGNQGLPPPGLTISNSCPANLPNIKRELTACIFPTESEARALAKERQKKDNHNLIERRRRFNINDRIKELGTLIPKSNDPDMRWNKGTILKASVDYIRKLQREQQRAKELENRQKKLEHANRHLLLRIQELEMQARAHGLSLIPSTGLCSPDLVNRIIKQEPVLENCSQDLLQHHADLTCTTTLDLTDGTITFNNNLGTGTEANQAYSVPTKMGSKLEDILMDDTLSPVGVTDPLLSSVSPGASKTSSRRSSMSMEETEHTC

[19] = viability of HCT116 lacking mutant beta-catenin – cell-based, human colon tumor, dose response (AID 1045); type: functional;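 note: HCT116 colon tumor cells with beta catenin knocked out; cells exposed to compound for 60 hours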
[20] = target: DNA dC->dU-editing enzyme APOBEC-3G (Homo sapiens, UniProt Q9HC16); experiment: Dose Response confirmation of small molecule APOBEC3G DNA Deaminase Inhibitors via a fluorescence-based single-stranded DNA deaminase assay. [Related pubchem assays (depositor defined):AID493012, AID493028]; type: functional
[21] = target: Glucose-6-phosphate 1-dehydrogenase (Homo sapiens, UniProt P11413); experiment: inhibition of Homo sapiens G6PD, dose series – biochemical, fluorescence, selectivity assay for P. falciparum G6PD inhibitor project, dose response (AID 504792); type: functional
T-cell = experiment: loss of vesicle association with mouse CD8+ T cells – mouse 2C CD8+ T cells, flow cytometry, dose response (AID 485284); type: functional
ORF 73 = ORF 73 (Human herpesvirus 8, UniProt O40947); experiment: KSHV LANA DNA-binding disruption – biochemical, fluorescence polarization, cherry-picked samples, dose response (AID 504725); parameters: species or system Human gammaherpesvirus 8;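 note: fluorescence polarization of a labeled DNA duplex reporting LANA DNA binding; potency is for inhibitors that block LANA binding to the DNA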
Salmon testes DNA = experiment: acridine orange-DNA binding displacement – biochemical, fluorescence polarization, cherry-picked samples, set 2, artefact control for KSHV LANA DNA-binding inhibitor project, dose response (AID 504727); parameters: species or system Salmonidae
BJ [22] = experiment: BJ-TERT-LT-ST fibroblast viability loss – cell-based, RAS-independent, luminescence, dose response (AID 1935); type: functional; conditions: Homo sapiens;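 note: BJ fibroblasts immortalized with TERT plus LT and ST oncogenes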
[23] = alpha-synuclein stem-loop luciferase translation blockers – H4 neuroglioma cells, luminescence, confirmation (AID 1988); type: functional, cell-based
[24] = DRD fibroblast viability loss – cell-based, non-viral oncogenic, luminescence, dose response (AID 1934); type: functional; conditions: Homo sapiens
BJ [25] = experiment: BJ-TERT fibroblast viability loss – cell-based, RAS-independent, luminescence, dose response (AID 1933); type: functional; conditions: Homo sapiens
[26] = Luminescence Cell-Based Dose Retest to Confirm Activators of 5'UTR Stem-Loop Driven Alpha-Synuclein mRNA Translation in H4 Neuroglioblastoma Cells. [Related pubchem assays (depositor defined):AID1813, AID1829]; type: functional
[27] = Luminescence Cell-Based Dose Response HTS to Identify Inhibitors of 5'UTR Stem-Loop Driven Prion Protein mRNA Translation in H4 Neuroglioblastoma Cells. [Related pubchem assays: 1827 (Project Summary), 1813 (Primary HTS)]; type: functional
[28] = luciferase reporter signal suppression in cells – H4 neuroglioma cells, luminescence, dose response (AID 1990); type: functional, cell-based
BJ [29] = experiment: cells; type: functional, cell-based; conditions: Homo sapiens
BJ [30] = experiment: growth inhibition of engineered Ras-driven BJ cells – cell-based, alamar blue fluorescence, cherrypicked samples, dose response (AID 2631); type: functional; conditions: Homo sapiens;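 note: confirmatory dose-response assay in RAS-dependent BJ fibroblasts engineered with TERT, LT and ST, with cytotoxicity read by fluorescence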

T2 sequence (P98170 whole entry): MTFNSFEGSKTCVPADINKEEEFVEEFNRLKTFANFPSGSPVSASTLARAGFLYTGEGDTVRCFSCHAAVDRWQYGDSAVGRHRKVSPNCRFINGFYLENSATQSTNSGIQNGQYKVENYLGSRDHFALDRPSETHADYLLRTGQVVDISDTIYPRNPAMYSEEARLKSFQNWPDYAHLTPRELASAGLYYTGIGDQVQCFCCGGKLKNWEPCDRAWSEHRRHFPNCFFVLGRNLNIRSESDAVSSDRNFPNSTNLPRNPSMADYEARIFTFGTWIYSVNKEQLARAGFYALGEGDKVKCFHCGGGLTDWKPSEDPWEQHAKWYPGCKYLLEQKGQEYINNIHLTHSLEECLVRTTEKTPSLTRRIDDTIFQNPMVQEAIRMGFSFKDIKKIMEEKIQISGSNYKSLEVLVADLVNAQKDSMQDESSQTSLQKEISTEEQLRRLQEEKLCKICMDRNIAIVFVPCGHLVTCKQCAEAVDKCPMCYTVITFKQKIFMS
Chain of Alkaline phosphatase, placental type (P05187 whole entry): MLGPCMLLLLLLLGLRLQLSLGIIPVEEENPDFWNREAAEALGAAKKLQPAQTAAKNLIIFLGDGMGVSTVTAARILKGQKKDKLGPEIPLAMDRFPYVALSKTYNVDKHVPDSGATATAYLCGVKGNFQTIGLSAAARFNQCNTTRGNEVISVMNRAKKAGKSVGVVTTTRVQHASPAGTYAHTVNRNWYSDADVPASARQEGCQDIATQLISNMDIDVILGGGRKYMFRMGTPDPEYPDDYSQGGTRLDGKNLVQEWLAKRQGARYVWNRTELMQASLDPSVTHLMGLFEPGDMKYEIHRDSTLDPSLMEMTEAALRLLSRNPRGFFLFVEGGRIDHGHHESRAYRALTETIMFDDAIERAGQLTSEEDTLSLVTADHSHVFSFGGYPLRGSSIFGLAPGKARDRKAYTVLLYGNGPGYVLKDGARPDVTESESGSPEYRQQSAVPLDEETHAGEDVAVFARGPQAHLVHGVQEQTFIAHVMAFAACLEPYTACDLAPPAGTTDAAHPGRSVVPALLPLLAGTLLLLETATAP
Chain of NACHT, LRR and PYD domains-containing protein 1 (Q9C000 1-1212 limits assumed): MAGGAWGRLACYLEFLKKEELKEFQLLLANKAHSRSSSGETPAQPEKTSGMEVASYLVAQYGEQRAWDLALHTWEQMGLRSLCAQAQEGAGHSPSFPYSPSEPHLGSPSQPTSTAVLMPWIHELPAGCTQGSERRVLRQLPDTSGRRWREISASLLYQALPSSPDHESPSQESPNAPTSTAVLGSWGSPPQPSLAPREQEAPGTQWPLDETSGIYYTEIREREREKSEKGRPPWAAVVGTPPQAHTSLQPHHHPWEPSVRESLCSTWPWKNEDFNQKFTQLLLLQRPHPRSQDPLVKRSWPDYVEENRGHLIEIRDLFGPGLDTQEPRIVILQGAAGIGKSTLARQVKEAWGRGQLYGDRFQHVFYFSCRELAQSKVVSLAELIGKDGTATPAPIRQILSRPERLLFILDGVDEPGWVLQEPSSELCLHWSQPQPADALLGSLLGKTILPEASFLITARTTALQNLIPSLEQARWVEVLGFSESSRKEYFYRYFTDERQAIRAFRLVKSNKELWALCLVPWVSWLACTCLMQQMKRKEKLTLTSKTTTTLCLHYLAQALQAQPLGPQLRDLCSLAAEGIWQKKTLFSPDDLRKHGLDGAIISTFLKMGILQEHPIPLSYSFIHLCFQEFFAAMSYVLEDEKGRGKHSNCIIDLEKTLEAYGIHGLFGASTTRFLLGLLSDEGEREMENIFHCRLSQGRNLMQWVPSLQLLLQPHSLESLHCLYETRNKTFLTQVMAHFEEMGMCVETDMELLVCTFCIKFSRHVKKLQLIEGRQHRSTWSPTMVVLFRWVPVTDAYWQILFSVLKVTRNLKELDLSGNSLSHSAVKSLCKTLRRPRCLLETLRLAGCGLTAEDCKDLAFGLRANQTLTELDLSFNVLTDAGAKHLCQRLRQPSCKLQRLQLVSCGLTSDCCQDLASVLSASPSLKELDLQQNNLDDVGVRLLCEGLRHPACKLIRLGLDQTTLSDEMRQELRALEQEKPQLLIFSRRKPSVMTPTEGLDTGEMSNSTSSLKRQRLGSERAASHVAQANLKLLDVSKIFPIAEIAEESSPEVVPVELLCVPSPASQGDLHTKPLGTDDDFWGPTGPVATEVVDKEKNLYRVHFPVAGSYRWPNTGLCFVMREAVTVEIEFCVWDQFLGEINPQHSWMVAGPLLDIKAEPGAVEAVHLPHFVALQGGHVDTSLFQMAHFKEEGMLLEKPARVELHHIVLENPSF
Chain of NACHT, LRR and PYD domains-containing protein 1 (Q9C000 1213-1473 limits assumed): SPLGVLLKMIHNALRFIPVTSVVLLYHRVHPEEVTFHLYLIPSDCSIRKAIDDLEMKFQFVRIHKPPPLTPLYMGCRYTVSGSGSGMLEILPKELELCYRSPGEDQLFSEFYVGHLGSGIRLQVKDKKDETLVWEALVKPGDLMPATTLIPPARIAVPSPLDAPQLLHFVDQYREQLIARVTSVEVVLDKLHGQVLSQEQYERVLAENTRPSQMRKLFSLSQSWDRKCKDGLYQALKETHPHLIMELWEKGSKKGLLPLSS
Chain of G-protein coupled receptor 55 (Q9Y2T6 whole entry): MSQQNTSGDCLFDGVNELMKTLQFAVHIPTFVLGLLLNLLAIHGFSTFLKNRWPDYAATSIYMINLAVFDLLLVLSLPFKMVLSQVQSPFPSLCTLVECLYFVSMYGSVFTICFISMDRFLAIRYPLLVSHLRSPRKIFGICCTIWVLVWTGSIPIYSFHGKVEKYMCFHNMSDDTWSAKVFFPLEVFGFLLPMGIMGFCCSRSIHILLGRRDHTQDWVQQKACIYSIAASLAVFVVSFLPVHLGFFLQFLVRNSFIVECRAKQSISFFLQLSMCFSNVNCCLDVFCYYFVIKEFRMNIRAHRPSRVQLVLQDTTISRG
Chain of Beta-galactosidase (Q8VNN2 whole entry): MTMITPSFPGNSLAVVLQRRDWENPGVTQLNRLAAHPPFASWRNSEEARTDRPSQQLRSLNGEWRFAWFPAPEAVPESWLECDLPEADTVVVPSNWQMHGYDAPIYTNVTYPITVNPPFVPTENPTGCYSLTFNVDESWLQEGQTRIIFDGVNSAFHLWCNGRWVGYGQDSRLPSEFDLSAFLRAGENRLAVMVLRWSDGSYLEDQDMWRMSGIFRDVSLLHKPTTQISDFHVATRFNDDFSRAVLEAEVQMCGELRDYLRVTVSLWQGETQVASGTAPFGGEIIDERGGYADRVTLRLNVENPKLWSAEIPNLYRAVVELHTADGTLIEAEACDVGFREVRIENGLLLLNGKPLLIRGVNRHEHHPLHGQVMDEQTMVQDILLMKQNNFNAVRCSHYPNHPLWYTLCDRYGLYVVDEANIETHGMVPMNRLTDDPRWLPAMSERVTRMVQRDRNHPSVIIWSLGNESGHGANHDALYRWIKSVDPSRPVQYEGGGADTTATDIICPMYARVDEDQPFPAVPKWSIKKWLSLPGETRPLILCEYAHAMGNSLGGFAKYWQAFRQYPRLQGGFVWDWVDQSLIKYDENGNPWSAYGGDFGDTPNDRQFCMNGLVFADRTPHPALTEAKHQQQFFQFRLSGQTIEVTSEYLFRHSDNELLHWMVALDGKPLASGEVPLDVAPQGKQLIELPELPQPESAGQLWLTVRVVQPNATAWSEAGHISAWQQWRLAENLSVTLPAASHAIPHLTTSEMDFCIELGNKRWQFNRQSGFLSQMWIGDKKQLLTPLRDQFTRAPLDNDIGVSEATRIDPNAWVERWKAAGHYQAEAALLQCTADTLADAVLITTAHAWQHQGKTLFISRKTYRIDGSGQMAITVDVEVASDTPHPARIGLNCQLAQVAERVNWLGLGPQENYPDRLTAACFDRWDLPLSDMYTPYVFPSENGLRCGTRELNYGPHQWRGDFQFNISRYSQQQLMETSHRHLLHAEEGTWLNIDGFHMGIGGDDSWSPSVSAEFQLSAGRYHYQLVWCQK
Chain of Glucose-6-phosphate 1-dehydrogenase (P11413 whole entry): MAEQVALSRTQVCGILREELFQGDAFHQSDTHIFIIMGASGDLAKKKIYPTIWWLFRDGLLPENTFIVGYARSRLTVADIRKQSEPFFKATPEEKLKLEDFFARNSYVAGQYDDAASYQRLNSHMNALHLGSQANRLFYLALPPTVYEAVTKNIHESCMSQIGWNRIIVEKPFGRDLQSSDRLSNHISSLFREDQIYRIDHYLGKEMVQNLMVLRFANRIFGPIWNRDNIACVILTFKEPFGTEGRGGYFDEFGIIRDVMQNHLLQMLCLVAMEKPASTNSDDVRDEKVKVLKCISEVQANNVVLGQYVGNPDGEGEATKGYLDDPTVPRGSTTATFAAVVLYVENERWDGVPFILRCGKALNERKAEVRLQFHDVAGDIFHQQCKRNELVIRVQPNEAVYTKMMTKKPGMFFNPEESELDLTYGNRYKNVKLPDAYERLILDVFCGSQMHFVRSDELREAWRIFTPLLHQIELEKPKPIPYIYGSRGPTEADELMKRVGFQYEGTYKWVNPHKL
Chain of CAAX prenyl protease 2 (Q03530 whole entry): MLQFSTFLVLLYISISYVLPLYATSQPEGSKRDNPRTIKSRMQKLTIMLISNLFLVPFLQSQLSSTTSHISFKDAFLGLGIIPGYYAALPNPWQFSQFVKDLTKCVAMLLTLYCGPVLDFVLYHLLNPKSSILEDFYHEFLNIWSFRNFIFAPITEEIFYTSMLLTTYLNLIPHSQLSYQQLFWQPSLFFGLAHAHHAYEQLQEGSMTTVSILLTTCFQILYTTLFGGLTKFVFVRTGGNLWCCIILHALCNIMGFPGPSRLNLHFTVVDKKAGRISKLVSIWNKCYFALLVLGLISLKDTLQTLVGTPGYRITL
Chain of Trypsin (P00761 whole entry): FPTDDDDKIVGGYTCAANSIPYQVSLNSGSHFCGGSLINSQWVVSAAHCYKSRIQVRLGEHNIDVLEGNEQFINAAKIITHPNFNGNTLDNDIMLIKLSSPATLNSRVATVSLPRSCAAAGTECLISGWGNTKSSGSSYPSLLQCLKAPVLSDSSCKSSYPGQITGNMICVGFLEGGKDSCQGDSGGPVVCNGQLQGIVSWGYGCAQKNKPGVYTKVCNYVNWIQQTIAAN

Compound: CC1=C(C(=O)O)N2C(=O)C(NC(=O)CCCC(=O)O)C2SC1 (stereo not drawn)
- IC50 [1]: > 50 µM (inactive)
- IC50 [2]: > 56.8 µM (not active)

Compound: CCOC(=O)c1cc(C#N)c(Oc2ccc(F)cc2)nc1-c1ccccc1
- IC50 [3]: 3.03 µM (active)

Compound: COc1ccc2c(C)cc(SCC(=O)Nc3ccc(Cl)cn3)nc2c1
- IC50 [4]: > 100 µM (inactive)
- IC50 [5]: > 100 µM (not active)

Compound: CC(=O)O[C@@]12CO[C@@H]1C[C@H](O)[C@@]1(C)C(=O)[C@H](O)C3=C(C)[C@@H](OC(=O)[C@H](O)[C@@H](NC(=O)c4ccccc4)c4ccccc4)C[C@](O)([C@@H](OC(=O)c4ccccc4)[C@H]21)C3(C)C
- EC50 [6]: 2.4 µM (active)
- EC50 [7]: 73.1 µM (inconclusive)
- EC50 [8]: 0.692 µM (active)
- EC50 [9]: 2.3 µM (active)
- EC50 [10]: 2.02 µM (inconclusive)

Compound: COc1ccc(C2CC(c3ccccc3)=NN2C(=O)c2ccc(Cl)c([N+](=O)[O-])c2)cc1 (stereo not drawn)
- EC50 [11]: 32.6 µM (active)
- AC50 (Trypsin): 77.7 µM (active)
- AC50 (CAAX prenyl protease 2): 26.1 µM (active)

Compound: COc1ccc(-n2c(SCC(=O)c3ccc(O)c(O)c3)nnc2-c2ccc(C)cc2)cc1
- IC50 [12]: > 100 µM (inactive)
- IC50 [13]: 5.84 µM (active)

Compound: Cc1cc(C)c(OCC(=O)Nc2nc(-c3ccccn3)cs2)c(C)c1
- IC50 (Beta-galactosidase): > 66.6 µM (inactive)
- EC50 (Streptococcus): 5.71 µM (active)
- EC50 [11]: 8.87 µM (active)
- EC50 [14]: 2.47 µM (active)
- IC50 (H9c2): 10 µM (active)
- EC50 [15]: 2.75 µM (active)

Compound: CCN(C(=O)COC(=O)c1cccnc1Nc1cccc(C(F)(F)F)c1)C1CCS(=O)(=O)C1 (stereo not drawn)
- IC50 (Saccharomyces cerevisiae): > 100 µM (inactive)
- IC50 [16]: > 100 µM (inactive)

Compound: CC1=NOC(=O)/C1=C\c1ccc(-c2cccc(Cl)c2)o1
- EC50 [17]: 14.5 µM (active)
- IC50 [3]: 8.52 µM (active)
- IC50 (Beta-galactosidase): > 66.6 µM (inactive)
- AC50 [18]: 5.36 µM (active)
- EC50 [19]: 11.8 µM (active)

Compound: CCC1(C)CC(C(N)=S)CCO1 (stereo not drawn)
- IC50 [20]: 33.2 µM (active)
- IC50 [21]: > 80 µM (inactive)

Compound: COC(=O)c1ccccc1NC(=O)C1CCN(C(=O)c2cc(OC)cc(OC)c2)CC1
- EC50 (T-cell): 0.641 µM (active)

Compound: O=C(NC12CC3CC(CC(C3)C1)C2)N1CCN(c2ncccn2)CC1
- AC50 (ORF 73): 81.5 µM (active)
- AC50 (Salmon testes DNA): 210 µM (active)

Compound: CCOc1ccccc1NC(=O)C1=C(C)NC(=S)NC1c1cccs1 (stereo not drawn)
- IC50 [4]: > 100 µM (inactive)
- IC50 [5]: > 100 µM (not active)

Compound: Cc1cccc(-c2nc3c(c(SCC(=O)c4ccc(O)c(O)c4)n2)CCCC3)c1
- IC50 [12]: 78.5 µM (active)
- IC50 [13]: > 100 µM (inactive)

Compound: CC(=O)c1ccc(NC(=O)Nc2ccc(Cl)cc2)cc1
- IC50 (Saccharomyces cerevisiae): 2.98 µM (active)
- IC50 [16]: 35.9 µM (active)

Compound: COC(=O)C1CC23C=CCN4CCC5(c6ccccc6NC15C2C)C43 (stereo not drawn)
- EC50 (BJ [22]): 0.574 µM (inconclusive)
- EC50 [23]: 0.134 µM (active)
- EC50 [6]: 1.13 µM (active)
- EC50 [24]: 0.495 µM (active)
- EC50 (BJ [25]): 0.612 µM (active)
- EC50 [26]: 7.37 µM (inconclusive)
- EC50 [27]: 2.28 µM (active)
- EC50 [28]: 4.2 µM (active)
- EC50 (BJ [29]): 7.77 µM (active)
- EC50 (BJ [30]): < 0.104 µM (active)
- EC50 [7]: 1.07 µM (inconclusive)
- EC50 [8]: 1.07 µM (active)
- EC50 [9]: 7.37 µM (active)
- EC50 [10]: 1.13 µM (inconclusive)
